Data as given in article PMC3180442 (PLoS ONE, 2011).

How the values were obtained:
RipA [1] = target: T1, RipA (Yersinia pestis, UniProt Q9ZC36); settings: 10 mM acid vs 10 mM acetate, butyryl-CoA as CoA donor, 100 mM Tris pH 7.0, room temperature; competing acceptor acid
RipA [2] = target: T1, RipA; settings: active site near Glu249; crystals grown with succinyl-CoA and tacsimate pH 5.0; acetate is the CoA acceptor in the activity assay
RipA [3] = target: T1, RipA; settings: 5 µM RipA, 20 µM ligand, 100 mM potassium phosphate pH 7.4; Tm with ligand, apo RipA 45.8 °C
[4] = target: Yersinia pestis RipA (Yersinia pestis); assay: SEC
[5] = target: Yersinia pestis RipA (Yersinia pestis); assay: SAXS
[6] = target: Yersinia pestis RipA (Yersinia pestis); assay: crystal structure

## O=C(O)CCCO [4-hydroxybutyrate]
RipA [1]
  % decrease in the rate of acetyl-CoA formation: 10%

## CC(=O)O [acetate]
RipA [2]
  X-ray crystal structure, 1.9 Å: electron density near the active site glutamate suggests an acetate molecule is located within

## CCC(=O)SCCNC(=O)CCNC(=O)[C@H](O)C(C)(C)COP(=O)(O)OP(=O)(O)OC[C@H]1O[C@@H](n2cnc3c(N)ncnc32)[C@H](O)[C@@H]1OP(=O)(O)O [Propionyl-CoA]
RipA [3]
  Tm (°C): 53.5±0.06 °C

## CC(=O)SCCNC(=O)CCNC(=O)[C@H](O)C(C)(C)COP(=O)(O)OP(=O)(O)OC[C@H]1O[C@@H](n2cnc3c(N)ncnc32)[C@H](O)[C@@H]1OP(=O)(O)O [Acetyl-CoA]
RipA [3]
  Tm (°C): 52.8±0.03 °C

## CCCC(=O)O [butyrate]
RipA [1]
  % decrease in the rate of acetyl-CoA formation: 80%

## CC(=O)CC(=O)SCCNC(=O)CCNC(=O)[C@H](O)C(C)(C)COP(=O)(O)OP(=O)(O)OC[C@H]1O[C@@H](n2cnc3c(N)ncnc32)[C@H](O)[C@@H]1OP(=O)(O)O [Aceto-acetyl-CoA]
RipA [3]
  Tm (°C): 48.3±0.01 °C

## C/C=C/C(=O)SCCNC(=O)CCNC(=O)[C@H](O)C(C)(C)COP(=O)(O)OP(=O)(O)OC[C@H]1O[C@@H](n2cnc3c(N)ncnc32)[C@H](O)[C@@H]1OP(=O)(O)O [Crotonyl-CoA]
RipA [3]
  Tm (°C): 47.9±0.54 °C

## CC(C)(COP(=O)(O)OP(=O)(O)OC[C@H]1O[C@@H](n2cnc3c(N)ncnc32)[C@H](O)[C@@H]1OP(=O)(O)O)[C@@H](O)C(=O)NCCC(=O)NCCSC(=O)CCC(=O)O [Succinyl-CoA]
RipA [3]
  Tm (°C): 52.8±0.28 °C

## Yersinia pestis RipA (enzyme)
[4]
  stoichiometry N: 4
[5]
  stoichiometry N: 4
[6]
  stoichiometry N: 4

## CCC(=O)O [propionate]
RipA [1]
  % decrease in the rate of acetyl-CoA formation: 80%

## CCCC(=O)SCCNC(=O)CCNC(=O)[C@H](O)C(C)(C)COP(=O)(O)OP(=O)(O)OC[C@H]1O[C@@H](n2cnc3c(N)ncnc32)[C@H](O)[C@@H]1OP(=O)(O)O [Butyryl-CoA]
RipA [3]
  Tm (°C): 53.4±0.05 °C
